Like-named read-outs stand apart in the source and are kept apart here.
What was measured:
[1] = AT1001-045 study: plasma migalastat bioavailability of 150 mg migalastat HCl capsule with caffeine and sweetener beverages relative to water; type: in vivo, human (healthy subjects); settings: for AUC0-t Ratio / AUC0-∞ Ratio / Cmax Ratio: percent scale; for Cmax / AUC(0-t) / AUC(0-inf) / Tmax / half-life: both sexes, human, plasma, po, 150 mg; for Cmax: read-out: Cmax GeoMean; for AUC(0-t): read-out: AUC0-t GeoMean; for AUC(0-inf): read-out: AUC0-∞ GeoMean; for Tmax: read-out: tmax Median; for half-life: read-out: t1/2 Mean (converted)
Experimental: The example describes the AT1001-045 study, which was an open-label study of the bioavailability, safety and tolerability of migalastat in combination with caffeine and sweeteners.
The primary objective was to evaluate plasma migalastat bioavailability of the 150 mg migalastat HCl capsule in a caffeinated beverage, a sucrose beverage, a combination caffeinated and sucrose beverage, an aspartame artificial sweetener beverage, and an acesulfame potassium artificial sweetener beverage relative to water in healthy subjects.
The primary endpoints were ANOVA comparisons of interest between each test treatment and reference treatment for Cmax, AUC0-t and AUC0-∞. The comparisons of interest were point estimate ratios and lower/upper 90% confidence intervals.
This was a single-center, single dose, randomized, open-label, 6-way crossover study. Each subject received a single oral dose of migalastat HCl 150 mg for each of 6 periods.
In randomized sequence, each subject received a 150 mg migalastat HCl capsule with a caffeinated beverage, a sucrose drink, a combination caffeinated and sucrose beverage, an aspartame artificial sweetener drink, an acesulfame potassium artificial sweetener drink, or water.
All study treatments were administered in the fasted condition (overnight+4 hours post-dose).
Each single dose administration was followed by a 72-hour PK sampling period which also served as the between-treatment washout interval.
Appropriate migalastat exposure ratios (Cmax and AUC) with corresponding 90% confidence intervals will be used to address the comparisons of interest: • Caffeine (test) vs. water (reference) • Sucrose (test) vs. water (reference) • Caffeine+Sucrose (test) vs. water (reference) • Aspartame (test) vs. water (reference) • Acesulfame K (test) vs. water (reference)
• Study Population: male and female healthy subjects 18 to 45 years of age. • Sample Size: 20 subjects balanced for gender. • Dose: A single 150 mg capsule of migalastat hydrochloride, provided as GALAFOLD®.
The following test treatments were prepared: • Caffeinated beverage: 8 oz of caffeinated tea; nothing added; administered warm (40 to 50 degrees C.) and consumed within 10 minutes • Sucrose drink: 8 oz sucrose solution prepared with 26 grams sucrose, chilled before drug administration, and consumed within 10 minutes • Equivalent to sucrose content in one 8 oz serving of cane sugar-containing Coca-Cola® • Caffeinated+Sucrose drink: 8 oz caffeinated/sucrose beverage, chilled before drug administration, and consumed within 10 minutes (e.g., Jolt®) • Aspartame: 8 oz aspartame solution prepared with 125 mg aspartame, chilled before drug administration, and consumed within 10 minutes • Equivalent to aspartame content in one 8 oz can of Diet Coke® • Acesulfame K: 8 oz acesulfame K solution prepared with 30 mg acesulfame K, chilled before drug administration, and consumed within 10 minutes • Equivalent to acesulfame K content in one 8 oz can of Diet Coke® or Coca-Cola® Zero Sugar

[2] = as above; type: in vivo, human (healthy subjects); settings: 280 mL of coffee containing approximately 190 mg caffeine at the time of dosing, compared to water
[3] = taken with food; cited from earlier work
[4] = Acesulfame K (test) vs. water (reference)
[5] = Aspartame (test) vs. water (reference)
[6] = Caffeine (test) vs. water (reference)
[7] = Caffeine + Sucrose (test) vs. water (reference)
[8] = Sucrose (test) vs. water (reference)
[9] = single oral 150 mg migalastat HCl capsule, fasted, with Acesulfame K drink
[10] = single oral 150 mg migalastat HCl capsule, fasted, with Aspartame drink
[11] = single oral 150 mg migalastat HCl capsule, fasted, with Caffeine + Sucrose drink
[12] = single oral 150 mg migalastat HCl capsule, fasted, with Caffeine beverage
[13] = single oral 150 mg migalastat HCl capsule, fasted, with Sucrose drink
[14] = single oral 150 mg migalastat HCl capsule, fasted, with water (reference)

Structure (SMILES): OC[C@H]1NC[C@H](O)[C@@H](O)[C@H]1O [migalastat, (2R,3S,4R,5S)-2-(hydroxymethyl) piperdine-3,4,5-triol]
- mean reduction in AUC0-∞ ([1]; 280 mL of coffee containing approximately 190 mg caffeine at the time of dosing, compared to water): 57%
- AUC0-t Ratio [1, 4]: 93.9
- AUC0-∞ Ratio [1, 4]: 96.1
- Cmax Ratio [1, 4]: 92.3
- AUC0-t Ratio [1, 5]: 104.9
- AUC0-∞ Ratio [1, 5]: 102.9
- Cmax Ratio [1, 5]: 103.3
- AUC0-t Ratio [1, 6]: 43.1
- AUC0-∞ Ratio [1, 6]: 45.8
- Cmax Ratio [1, 6]: 39.9
- AUC0-t Ratio [1, 7]: 46.9
- AUC0-∞ Ratio [1, 7]: 47.7
- Cmax Ratio [1, 7]: 45.9
- AUC0-t Ratio [1, 8]: 92.2
- AUC0-∞ Ratio [1, 8]: 91.8
- Cmax Ratio [1, 8]: 95.3
- Cmax ([1]; single oral 150 mg migalastat HCl capsule, fasted, healthy subjects, with water (reference)): 1330 ng/mL
- AUC(0-t) [1, 9]: 8120 ng·h/mL
- AUC(0-inf) [1, 9]: 8640 ng·h/mL
- Cmax [1, 9]: 1220 ng/mL
- Tmax [1, 9]: 4 h
- AUC(0-t) [1, 10]: 9080 ng·h/mL
- AUC(0-inf) [1, 10]: 9080 ng·h/mL
- Cmax [1, 10]: 1370 ng/mL
- half-life [1, 10]: 8.1 h
- Tmax [1, 10]: 4 h
- AUC(0-t) [1, 11]: 4050 ng·h/mL
- AUC(0-inf) [1, 11]: 4270 ng·h/mL
- Cmax [1, 11]: 611 ng/mL
- half-life [1, 11]: 8.8 h
- Tmax [1, 11]: 3 h
- AUC(0-t) [1, 12]: 3720 ng·h/mL
- AUC(0-inf) [1, 12]: 4100 ng·h/mL
- Cmax [1, 12]: 529 ng/mL
- half-life [1, 12]: 10.2 h
- Tmax [1, 12]: 3 h
- AUC(0-t) [1, 13]: 7960 ng·h/mL
- AUC(0-inf) [1, 13]: 8030 ng·h/mL
- Cmax [1, 13]: 1260 ng/mL
- half-life [1, 13]: 7.8 h
- Tmax [1, 13]: 3 h
- AUC(0-t) [1, 14]: 8620 ng·h/mL
- AUC(0-inf) [1, 14]: 8610 ng·h/mL
- half-life [1, 14]: 7.5 h
- Tmax [1, 14]: 4 h
- rate of absorption (tmax) effect ([1]; coffee or sweetened beverages in comparison to water): not affected
- AUC0-∞ GeoMean [1, 9]: 8621 ng·h/mL
- t1/2 Mean [1, 9]: 7.2 h
- AUC0-∞ GeoMean [1, 10]: 9043 ng·h/mL
- AUC0-∞ GeoMean [1, 13]: 8008 ng·h/mL
- AUC0-∞ GeoMean [1, 14]: 8570 ng·h/mL
- mean difference in AUC (decrease) ([1]; sucrose vs water): 8%
- bioequivalence to water (90% CI within 80% to 125%) ([1]; with acesulfame K): bioequivalent to water
- bioequivalence to water (90% CI within 80% to 125%) ([1]; with aspartame): bioequivalent to water
- bioequivalence to water (90% CI within 80% to 125%) ([1]; with sucrose): very close to bioequivalent
- mean reduction in Cmax [2]: 60%
- decrease in migalastat exposure [3]: approximately 40%

Reference: US20240197706A1, “METHODS OF IMPROVING THE PHARMACOKINETICS OF MIGALASTAT” (Amicus Therapeutics, Inc., priority 2022, published 2024)
